Results from patent publication US9328360B2, “Conversion of glycerol to 1,3-propanediol under haloalkaline conditions” (The Curators of the University of Missouri, priority 2013, dated 2016).

How the values were obtained:
Format in all cases: cell-based, Halanaerobium hydrogeniformans
H. hydrogeniformans [1] = assay: Tolerance of H. hydrogeniformans to 1,3-propanediol (growth by turbidity); conditions: for Growth: 30 mM glycerol
Description: (§1) The tolerance of H. hydrogeniformans to increasing concentrations of 1,3-propanediol was examined. Anaerobic cultures were prepared in 160 mL serum bottles. The medium was prepared by boiling to degas under a N2 blanket. As the medium cooled, reductant stock mix was added to the media that contained 0.75 g Na2S and 0.6 g cysteine per liter. Once the media was cooled, the flasks were transferred into a Coy anaerobic glove bag where the 50 mL of media was dispensed into 160 mL serum bottles filled and autoclaved (121° C., 20 min). After autoclaving, the headspace gas was exchanged for 80% N2/20% CO2 mixture. The bottles then were inoculated with a 10% inoculum from previous stock cultures and amended with 30 mM glycerol. Sterilized 1,3-propanediol was added to the serum bottles to achieve 10, 30, 60, 120, 380, and 750 mM. Growth was examined by turbidity readings taken at […].

H. hydrogeniformans [2] = assay: Requirement of B12: 1,3-propanediol production from 30 mM glycerol over a vitamin B12 gradient (HPLC); conditions: for Percent mole/mole conversion of glycerol to 1,3-propanediol / 1,3-propanediol produced: 30 mM glycerol
Description: Anaerobic cultures were prepared in 160 mL serum bottles. The medium was prepared by boiling to degas under a N2 blanket. As the medium cooled, reductant stock mix was added to the media that contained 0.75 g Na2S and 0.6 g cysteine per liter. Once the media was cooled, the flasks were transferred into a Coy anaerobic glove bag where the 50 mL of media was dispensed into 160 mL serum bottles filled and autoclaved (121° C., 20 min). After autoclaving, the headspace gas was exchanged for 80% N2/20% CO2 mixture. The bottles then were inoculated with a 10% inoculum from previous stock cultures. 30 mM glycerol was added. Vitamin B12 supplementation from anaerobic, filter-sterilized stocks were added right before inoculation at 0 μg/L, 25 μg/L, 50 μg/L, 75 μg/L, and 100 μg/L.
Samples were taken every 24 hours. 5 mL syringes were degassed with N2/CO2 mix, and 1 mL of culture sample was removed for each of the sample periods. The sample was placed in a 1.5 mL Eppendorf tube, and centrifuged for 5 min at 13,000×g. The supernatant was decanted into another 1.5 mL Eppendorf tube, and frozen for HPLC analysis.
For HPLC analysis, filter sterilized samples ([…] PTFE filters) were injected onto a 300×7.8 mm Aminex HPX-87H column (BioRad, Hercules, Calif.) maintained at 50° C. The mobile phase was 2.5 mM H2SO4 maintained at a constant flow rate of 0.6 ml/min and at approximately 2.2 MPa. Detection was done with both a UV 231 (at 210 nm) and refractive index monitor.

H. hydrogeniformans [3] = assay: Tolerance of H. hydrogeniformans to glycerol (growth by turbidity); conditions: 7% NaCl, pH 11
Description: as §1, with “to” for “to increasing”, “glycerol” for “1,3-propanediol”, “cultures.” for “cultures and amended with 30 mM glycerol.”, “7.5, 15,” for “10,”, “240, 480, 960,” for “380,”, “1920” for “750”

OCCCO [1,3-propanediol]
Growth (H. hydrogeniformans [1]; 1,3-propanediol 10 mM): capable of growth | Growth (H. hydrogeniformans [1]; 1,3-propanediol 30 mM): capable of growth | Growth (H. hydrogeniformans [1]; 1,3-propanediol 60 mM): capable of growth | Growth (H. hydrogeniformans [1]; 1,3-propanediol 120 mM): capable of growth | Growth (H. hydrogeniformans [1]; 1,3-propanediol 380 mM): capable of growth | 1,3-propanediol concentration at which growth is possible (H. hydrogeniformans [1]; 7% NaCl, pH 11): 380 mM | 1,3-propanediol concentration tolerated (H. hydrogeniformans [1]; in addition to 7% (w/v) and pH 11): at least 0.38 M

OCC(O)CO [Glycerol, glycerol]
Percent mole/mole conversion of glycerol to 1,3-propanediol (H. hydrogeniformans [2]; B12 amendment 0 μg/L): 31.5 % mol 1,3-propandiol/mol glycerol | conversion rate (H. hydrogeniformans [2]; absence of B12): 31% | 1,3-propanediol produced (H. hydrogeniformans [2]; no vitamin B12 provided): approximately 8.5 mM | Growth (H. hydrogeniformans [3]; Glycerol 7.5 mM): capable of growth | Growth (H. hydrogeniformans [3]; Glycerol 15 mM): capable of growth | Growth (H. hydrogeniformans [3]; Glycerol 30 mM): capable of growth | Growth (H. hydrogeniformans [3]; Glycerol 60 mM): capable of growth | Growth (H. hydrogeniformans [3]; Glycerol 120 mM): capable of growth | Growth (H. hydrogeniformans [3]; Glycerol 240 mM): capable of growth | Growth (H. hydrogeniformans [3]; Glycerol 480 mM): capable of growth | Growth (H. hydrogeniformans [3]; Glycerol 960 mM): capable of growth | Growth (H. hydrogeniformans [3]; Glycerol 1920 mM): capable of growth

vitamin B12
Percent mole/mole conversion of glycerol to 1,3-propanediol (H. hydrogeniformans [2]; B12 amendment 25 μg/L): 59.1 % mol 1,3-propandiol/mol glycerol | Percent mole/mole conversion of glycerol to 1,3-propanediol (H. hydrogeniformans [2]; B12 amendment 50 μg/L): 60.3 % mol 1,3-propandiol/mol glycerol | Percent mole/mole conversion of glycerol to 1,3-propanediol (H. hydrogeniformans [2]; B12 amendment 75 μg/L): 60.1 % mol 1,3-propandiol/mol glycerol | Percent mole/mole conversion of glycerol to 1,3-propanediol (H. hydrogeniformans [2]; B12 amendment 100 μg/L): 60.2 % mol 1,3-propandiol/mol glycerol | conversion rate (H. hydrogeniformans [2]; B12 supplementation >25 μg/L): approximately 60% | 1,3-propanediol produced (H. hydrogeniformans [2]; culture amended with 25, 50, 75, or 100 μg/L vitamin B12): Approximately 16.5 mM
